Assays:
[1] = tested on: circulatory disturbances; details: known therapy of circulatory disturbances; cited from earlier work
[2] = tested on: systolic blood pressure of spontaneously hypertonic rats; assay: chronological course of blood pressure decrease in spontaneously hypertonic rats; assay type: in vivo, rat
Source text: (§1) The blood pressure-lowering action of the compound THCN according to the present invention and of DHCN was investigated on spontaneously hypertonic rats after oral administration and compared with that of ajmalicine. The method thereby used for the measurement of the systolic blood pressure and of the heart rate on rats is described in Arzneimittel-Forschung, 18, 1285-1287/1968. Before commencement of the experiments, the animals were familiarised with the measurement procedure.
(§2) In a further series of experiments, the chronological course of the blood pressure lowering was investigated. For this purpose, spontaneously hypertonic rats were treated with 10 mg./kg. DHCN and with 5 or 10 mg./kg. THCN per os and in each case 6 or 12 animals of the treated group were measured at definite times after the treatment.

[3] = tested on: mice; assay: acute toxicity, LD50 (Litchfield and Wilcoxon) on mice; assay type: in vivo; details: i.v., i.p. and oral LD50, mice
Source text: (§3) The toxicity of the compounds according to the present invention can be seen from the LD50 values given in the following Table 8 for intravenous, intraperitoneal and oral administration.

[4] = as above; assay type: in vivo; details: mouse, in vivo, mice
Source text: as §3

[5] = tested on: heart rate of spontaneously hypertonic rats; assay: chronological course of heart rate of spontaneously hypertonic rats; assay type: in vivo, rat; parameters: heart rate at time t: unit not given here
Source text: as §1, §2

[6] = tested on: stereotypy brought about by apomorphine; assay: potentiation of apomorphine stereotypy in mice; assay type: in vivo; details: oral, same dosage range (10 to 20 mg/kg)
[7] = tested on: heart rate of spontaneously hypertonic rats; assay: chronological course of heart rate of spontaneously hypertonic rats; assay type: in vivo, rat; parameters: unit not given here; details: 20 mg/kg, 4 h.
[8] = tested on: CHCl3 arrhythmia; assay: inhibition of CHCl3 arrhythmia on mice, i.p.; assay type: in vivo
Source text: (§4) The antiarrhythmic effectiveness of DHCN and THCN was investigated on mice and rats.

[9] = tested on: systolic blood pressure of spontaneously hypertonic rats; assay: systolic blood pressure of spontaneously hypertonic rats after oral administration; assay type: in vivo, rat; details: for systolic blood pressure, subsequent value / systolic blood pressure, Δ / systolic blood pressure, Δ %: 2 h
Source text: as §1
(§5) In a first series of experiments, the systolic blood pressure and the heart rate were investigated 2 hours after the oral administration of the test substances in the form of their hydrochlorides. The substances were suspended in 0.2% agar and administered in a volume of 10 ml./kg. It follows therefrom that all three substances lower the blood pressure in a dosage-dependent manner.

[10] = tested on: aconitine-induced arrythmias; assay: protection against aconitine-induced arrhythmias in urethane-narcotised rats, i.v.; assay type: in vivo; details: 2 to 5 mg/kg (THCN)
Source text: as §4

[11] = tested on: heart rate of spontaneously hypertonic rats; assay: heart rate of spontaneously hypertonic rats after oral administration; assay type: in vivo, rat; details: 2 h
Source text: as §1, §5

[12] = tested on: blood pressure, vessels, central nervous system; assay: general pharmacological action (statement in words); details: in vivo
[13] = 18 mg/kg p.o., ajmalicine hydrochloride
[14] = 40 mg/kg p.o., ajmalicine hydrochloride
[15] = 56 mg/kg p.o., ajmalicine hydrochloride
[16] = 86 mg/kg p.o., ajmalicine hydrochloride
[17] = 100 mg/kg p.o., ajmalicine hydrochloride
[18] = 4 mg/kg p.o., dihydrocorynantheine
[19] = 8.6 mg/kg p.o., dihydrocorynantheine
[20] = 18 mg/kg p.o., dihydrocorynantheine
[21] = 32 mg/kg p.o., dihydrocorynantheine
[22] = 56 mg/kg p.o., dihydrocorynantheine

In the case of `COC(=O)C1=CO[C@@H](C)[C@H]2CN3CCc4c([nH]c5ccccc45)[C@@H]3C[C@H]12` [ajmalicine, reference compound], the “period of activity (in words)” value [1] is listed as “relatively short period of activity”, the “percentage decrease of blood pressure” value ([2]; 20 mg/kg, 10 min.) is listed as 9.5% and the “percentage decrease of blood pressure” value ([2]; 20 mg/kg, 20 min.) is listed as 13.0%. For the same compound, the “percentage decrease of blood pressure” value ([2]; 20 mg/kg, 40 min.) was 14.2%, the “percentage decrease of blood pressure” value ([2]; 20 mg/kg, 80 min.) was 9.8% and the “percentage decrease of blood pressure” value ([2]; 20 mg/kg, 2 h.) was 5.8%. For the same compound, the “percentage decrease of blood pressure” value ([2]; 20 mg/kg, 4 h.) was -1.2%, the “percentage decrease of blood pressure” value ([2]; 20 mg/kg, 6 h.) was -0.5% and the “toxicities compared (in words)” value [3] was “almost the same”. For the same compound, the LD50 ([4]; ip) was 90 mg/kg, the LD50 ([4]; iv) was 14 mg/kg and the LD50 ([4]; po) was 360 mg/kg. The “heart rate at time t” value ([5]; 20 mg/kg, 10 min.) was 503, the “heart rate at time t” value ([5]; 20 mg/kg, 20 min.) was 505 and the “heart rate at time t” value ([5]; 20 mg/kg, 40 min.) was 482. The “heart rate at time t” value ([5]; 20 mg/kg, 80 min.) was 481, the “heart rate at time t” value ([5]; 20 mg/kg, 2 h.) was 472 and the “heart rate at time t” value ([5]; 20 mg/kg, 6 h.) was 491. The “properties influencing the central nervous system (in words)” value [6] was “no properties influencing the central nervous system”, the “heart rate at time t” value [7] was 499 and the “antiarrhythmic effectiveness, chloroform arrythmias (in words)” value [8] was “no antiarrythmic effectiveness”. The “inhibition in % of CHCl3 arrhythmia” value ([8]; 25 mg/kg) was 0%, the “systolic blood pressure, subsequent value” [9, 13] was 198 ± 7 mm Hg and the “systolic blood pressure, Δ” value [9, 13] was -12 ± 2 mm Hg. The “systolic blood pressure, Δ %” value [9, 13] was -5.6 ± 1%, the “systolic blood pressure, subsequent value” [9, 14] was 173 ± 7 mm Hg and the “systolic blood pressure, Δ” value [9, 14] was -25 ± 6 mm Hg. The “systolic blood pressure, Δ %” value [9, 14] was -12.4 ± 3%, the “systolic blood pressure, subsequent value” [9, 15] was 172 ± 4 mm Hg and the “systolic blood pressure, Δ” value [9, 15] was -37 ± 5 mm Hg. For the same compound, the “systolic blood pressure, Δ %” value [9, 15] was -17.5 ± 2.1%, the “maximum blood pressure lowering” value ([9]; 56 mg/kg, not exceeded with dosages up to 100 mg/kg) was “about 18%” and the “systolic blood pressure, subsequent value” [9, 16] was 165 ± 11 mm Hg. For the same compound, the “systolic blood pressure, Δ” value [9, 16] was -36 ± 12 mm Hg, the “systolic blood pressure, Δ %” value [9, 16] was -17.7 ± 6.1% and the “systolic blood pressure, subsequent value” [9, 17] was 165 ± 5 mm Hg. The “systolic blood pressure, Δ” value [9, 17] was -33 ± 9 mm Hg, the “systolic blood pressure, Δ %” value [9, 17] was -16.3 ± 4% and the “antiarrhythmic effectiveness, aconitine-induced arrythmias (in words)” value [10] was “no antiarrythmic effectiveness”. For the same compound, the “heart rate, subsequent value” [11, 13] was 492 ± 27 beats/min, the “heart rate, Δ” value [11, 13] was 30 ± 15 beats/min and the “heart rate, Δ %” value [11, 13] was 7.3 ± 4.3%. For the same compound, the “heart rate, subsequent value” [11, 14] was 513 ± 11 beats/min, the “heart rate, Δ” value [11, 14] was 51 ± 19 beats/min and the “heart rate, Δ %” value [11, 14] was 11.9 ± 4.4%. For the same compound, the “heart rate, subsequent value” [11, 15] was 522 ± 9 beats/min, the “heart rate, Δ” value [11, 15] was 4 beats/min and the “heart rate, Δ %” value [11, 15] was 0.8 ± 1.6%. The “heart rate, subsequent value” [11, 16] was 511 ± 4 beats/min, the “heart rate, Δ” value [11, 16] was 14 ± 2 beats/min and the “heart rate, Δ %” value [11, 16] was 2.9 ± 2.0%. For the same compound, the “heart rate, subsequent value” [11, 17] was 515 ± 9 beats/min, the “heart rate, Δ” value [11, 17] was 26 ± 11 beats/min and the “heart rate, Δ %” value [11, 17] was 5.3%.
In the case of `CC[C@H]1CN2CCc3c([nH]c4ccccc34)[C@@H]2C[C@@H]1/C(=C\OC)C(=O)OC` [DHCN, dihydrocorynantheine], the “percentage decrease of blood pressure” value ([2]; 10 mg/kg p.o., 10 min.) is reported as 10.6%, the “percentage decrease of blood pressure” value ([2]; 10 mg/kg p.o., 20 min.) is reported as 14.5% and the “percentage decrease of blood pressure” value ([2]; 10 mg/kg p.o., 40 min.) is reported as 14.5%. For the same compound, the “percentage decrease of blood pressure” value ([2]; 10 mg/kg p.o., 80 min.) was 6.1%, the “percentage decrease of blood pressure” value ([2]; 10 mg/kg p.o., 2 h.) was 3.7% and the “percentage decrease of blood pressure” value ([2]; 10 mg/kg p.o., 4 h.) was 0.8%. The “percentage decrease of blood pressure” value ([2]; 10 mg/kg p.o., 6 h.) was 1.4%, the “blood pressure lowering action compared (in words)” value ([2]; DHCN 10 mg/kg vs THCN 5 mg/kg p.o.) was “the same action” and the “time of maximum blood pressure lowering” value ([2]; DHCN 10 mg/kg, THCN 5 mg/kg p.o.) was “about 40 minutes”. For the same compound, the “blood pressure after the maximum (in words)” value ([2]; DHCN 10 mg/kg, THCN 5 mg/kg p.o., after about 40 minutes) was “the blood pressure again increases to the initial value”, the “toxicities compared (in words)” value [3] was “almost the same” and the LD50 ([4]; ip) was 98 mg/kg. The LD50 ([4]; iv) was 13 mg/kg, the LD50 ([4]; po) was 210 mg/kg and the “heart rate at time t” value ([5]; 10 mg/kg p.o., 10 min.) was 504. For the same compound, the “heart rate at time t” value ([5]; 10 mg/kg p.o., 20 min.) was 515, the “heart rate at time t” value ([5]; 10 mg/kg p.o., 40 min.) was 500 and the “heart rate at time t” value ([5]; 10 mg/kg p.o., 80 min.) was 516. The “heart rate at time t” value ([5]; 10 mg/kg p.o., 2 h.) was 521, the “heart rate at time t” value ([5]; 10 mg/kg p.o., 4 h.) was 517 and the “heart rate at time t” value ([5]; 10 mg/kg p.o., 6 h.) was 507. The “heart rate change (in words)” value ([5]; DHCN 10 mg/kg, THCN 10 mg/kg, on the border of statistical significance) was “an increase is to be observed”, the “properties influencing the central nervous system (in words)” value [6] was “no properties influencing the central nervous system” and the “period and strength of activity compared with ajmalicine (in words)” value [12] was “greater than those of the known comparison compound ajmalicine”. The “inhibition in % of CHCl3 arrhythmia” value ([8]; 10 mg/kg) was 0%, the “inhibition in % of CHCl3 arrhythmia” value ([8]; 15 mg/kg) was 10% and the “inhibition in % of CHCl3 arrhythmia” value ([8]; 25 mg/kg) was 80%. The “systolic blood pressure, subsequent value” [9, 18] was 187 ± 6 mm Hg, the “systolic blood pressure, Δ” value [9, 18] was -12.7 ± 7 mm Hg and the “systolic blood pressure, Δ %” value [9, 18] was -5.8 ± 3.3%. For the same compound, the “systolic blood pressure, subsequent value” [9, 19] was 187 ± 5 mm Hg, the “systolic blood pressure, Δ” value [9, 19] was -13 ± 9 mm Hg and the “systolic blood pressure, Δ %” value [9, 19] was -6.2 ± 4.0%. For the same compound, the “systolic blood pressure, subsequent value” [9, 20] was 181 ± 3 mm Hg, the “systolic blood pressure, Δ” value [9, 20] was -21 ± 5 mm Hg and the “systolic blood pressure, Δ %” value [9, 20] was -10.1 ± 2.1%. For the same compound, the “systolic blood pressure, subsequent value” [9, 21] was 175 ± 10 mm Hg, the “systolic blood pressure, Δ” value [9, 21] was -29 ± 8 mm Hg and the “systolic blood pressure, Δ %” value [9, 21] was -14.6 ± 4.1%. For the same compound, the “systolic blood pressure, subsequent value” [9, 22] was 152 ± 6 mm Hg, the “systolic blood pressure, Δ” value [9, 22] was -41 ± 5 mm Hg and the “systolic blood pressure, Δ %” value [9, 22] was -21.4 ± 2.7%. For the same compound, the “heart rate, subsequent value” [11, 18] was 485 ± 14 beats/min, the “heart rate, Δ” value [11, 18] was 6 ± 20 beats/min and the “heart rate, Δ %” value [11, 18] was 1.5 ± 4.2%. The “heart rate, subsequent value” [11, 19] was 442 ± 19 beats/min, the “heart rate, Δ” value [11, 19] was -30 ± 18 beats/min and the “heart rate, Δ %” value [11, 19] was -6.2 ± 3.7%. For the same compound, the “heart rate, subsequent value” [11, 20] was 492 ± 12 beats/min, the “heart rate, Δ %” value [11, 20] was -0.6 ± 2.9% and the “heart rate, subsequent value” [11, 21] was 477 ± 5 beats/min. The “heart rate, Δ” value [11, 21] was -16 ± 11 beats/min, the “heart rate, Δ %” value [11, 21] was -3.1 ± 2.2% and the “heart rate, subsequent value” [11, 22] was 502 ± 14 beats/min. The “heart rate, Δ” value [11, 22] was 3 ± 21 beats/min and the “heart rate, Δ %” value [11, 22] was 2.9%.
